Laboratory results: patent US12350247B2, “Use of APE1/Ref-1 inhibitors for treatment of retinal diseases” (Indiana University Research and Technology Corporation, priority 2017, dated 2025)
Where two headings read alike, the source gives them in different places.

Key:
10.05 cells = assay: Intracellular pH assay (pHrodo Red AM) in hypoxic 10.05 cells; format: cell-based, human; details: 0.2% O2 48 hrs; up to 50 μM APX3330, 100 μM SLC-0111; 8 APX2009, 5 μM APX2014
Text: Therefore, the APX3330 analogs, APX2009 and APX2014, were used to determine whether APE1/Ref-1 redox inhibition alone can shift intracellular pH in hypoxic PDAC cells given a sufficiently potent inhibitor.

[1] = tested on: Pa03C and Panc10.05 tumor cells; assay: 3D spheroid / co-culture model of pancreatic cancer (both patient lines)
Protocol: Pa03C cells were plated into 3D cultures alone or with CAF19 cells.
Pa03C and Panc10.05 tumor cells were grown in 3D cultures in the presence of CAFs. Spheroids were treated with either single agents, vehicle (DMSO) or combination of targeted agents on days 4 and 8 (black arrows), and the intensity of tumor (red) and CAF (green) were quantified as described in Example 7 every 3-4 days in culture.

[2] = tested on: human carcinoma colon cell line HCT-116; assay: Alamar blue cytotoxicity combination assay (CalcuSyn); format: cell-based
Protocol: HTC-116 (Yunhua Liu) was seeded in a 96-well tissue culture plate at 2000 cells/well in DMEM+10% FBS and grown overnight at 37° C., 5% CO2. Drug Media DMEM+5% FBS was added at dosages of APX3330 (Apexian) in a 5-point spread from 75 uM to 6.3 uM and spiked with CPI-613 (Apexbio Technology) at 75 uM, or 50 uM, or alone for single agent. Cells were incubated for 72 hours at 37° C., 5% CO2. Media was exchanged with DMEM+5% FBS+10% Alamar blue fluorescent cell viability indicator (INVITROGEN™) and incubated 4 hours at 37° C., 5% CO2 and then read on a fluorescent reader (SYNERGY™ H4 BioTek). […] depicts Chou-Talalay Index (CI) of dose combinations (CalcuSyn). FIG. 32E depicts synergistic drug combinations (CalcuSyn) of APX3330 spiked with 50 uM CPI-613 or 75 uM CPI-613. […] Data shown is the average of 3 separate cytotoxicity assays; each assay normalized to media only control.
HTC-116 (Yunhua Liu) was seeded in a 96-well tissue culture plate at 2000 cells/well in DMEM+10% FBS and grown overnight at 37° C., 5% CO2. Drug Media DMEM+5% FBS was added at dosages of APX3330 (Apexian) from 100 uM to 0.4 uM in a 10-point spread and spiked with CPI-613 (Apexbio Technology) at 100 uM, or 75 uM, or alone for single agent. Cells were incubated for 72 hours at 37° C., 5% CO2. Media was exchanged with DMEM+5% FBS+10% Alamar blue fluorescent cell viability indicator (INVITROGEN™) and incubated 4 hours at 37° C., 5% CO2 and then read on a fluorescent reader (SYNERGY™ H4 BioTek). […] FIG. 33D depicts Chou-Talalay Index (CI) of dose combinations (CalcuSyn). FIG. 33E depicts synergistic drug combinations (CalcuSyn) of APX3330 spiked with 100 uM CPI-613 or 75 uM CPI-613. […] Data shown is the average of 3 separate cytotoxicity assays; each assay normalized to media only control.
HTC-116 (Yunhua Liu) was seeded in a 96-well tissue culture plate at 2000 cells/well in DMEM+10% FBS and grown overnight at 37° C., 5% CO2. Drug Media DMEM+5% FBS was added at dosages of APX2014 (Apexian) in a 5-point spread from 25 uM to 1.6 uM and spiked with CPI-613 (Apexbio Technology) at 75 uM, or 50 uM, or alone for single agent. Cells were incubated for 72 hours at 37° C., 5% CO2. Media was exchanged with DMEM+5% FBS+10% Alamar blue fluorescent cell viability indicator (INVITROGEN™) and incubated 4 hours at 37° C., 5% CO2 and then read on a fluorescent reader (SYNERGY™ H4 BioTek). […] FIG. 34D depicts Chou-Talalay Index (CI) of dose combinations (CalcuSyn). FIG. 34E depicts synergistic drug combinations (CalcuSyn) of APX2014 spiked with 50 uM CPI-613 or 75 uM CPI-613. Drug combination synergy could not be ascertained at APX2014 dosages when spiked with 50 uM CPI-613. […] Data shown is the average of 3 separate cytotoxicity assays; each assay normalized to media only control.
HTC-116 (Yunhua Liu) was seeded in a 96-well tissue culture plate at 2000 cells/well in DMEM+10% FBS and grown overnight at 37° C., 5% CO2. Drug Media DMEM+5% FBS was added at dosages of APX3330 (Apexian) from 100 uM to 0.4 uM in a 10-point spread and spiked with CB-839 (Sigma-Aldrich) at 1000 nM, or 500 nM, or alone for single agent. Cells were incubated for 72 hours at 37° C., 5% CO2. Media was exchanged with DMEM+5% FBS+10% Alamar blue fluorescent cell viability indicator (INVITROGEN™) and incubated 4 hours at 37° C., 5% CO2 and then read on a fluorescent reader (SYNERGY™ H4 BioTek). FIG. 35A depicts APX3330 and CB-839 single agent effects. FIG. 35B depicts APX3330 and CB-839 synergistic combo effects. […] FIG. 35E depicts synergistic drug combinations (CalcuSyn) of APX3330 spiked with 1000 nM CB-839 or 500 nM CB-839 (5-pt only). […] Data shown is the average of 3 separate cytotoxicity assays; each assay normalized to media only control.

CAFs (CAF19 cells) = assay: 3D spheroid co-culture, CAF signal (green channel); details: for CC50: read-out: LC50, 3D Cultures, CAFs
Panc10.05 = assay: 3D tumor spheroid culture growth (fluorescence intensity); details: read-out: LC50; 3D Cultures, Tumor Alone, Panc10.05, D12 curves

## CCCCCCCCC/C(=C\C1=C(C)C(=O)C(OC)=C(OC)C1=O)C(=O)O [APX3330]
10.05 cells
  effect on intracellular pH as single agent: did not affect
[1]; 3D co-cultures with CAFs, APX3330 at 50 μM, APX2009 at 10 μM, APX2014 at 0.6 μM
  tumor cell growth in combination with SLC-0111: significantly attenuated tumor cell growth
[1]; 3D spheroid model (tumor and CAF)
  tumor killing in combination with napabucasin: synergistic tumor killing effect
[1]; treated on days 4 and 8, FIG. 17
  single agent efficacy on 3D spheroid growth: reduced cell growth, cell proliferation
[2]; APX3330 75 uM and 50 uM spiked with 50 uM CPI-613, 5-point spread
  drug combination synergy (Chou-Talalay, CalcuSyn): synergy was observed
[2]; APX3330 100 uM-12.5 uM spiked with 75 uM CPI-613, 10-point spread
  drug combination synergy (Chou-Talalay, CalcuSyn): Synergy was observed
[2]; APX3330 100 uM-25 uM spiked with 1000 nM CB-839
  drug combination synergy (Chou-Talalay, CalcuSyn): synergy was observed
[2]; APX3330 100 uM-50 uM spiked with 500 nM CB-839
  drug combination synergy (Chou-Talalay, CalcuSyn): Synergy was observed
[2]; all APX3330 dosages (100 uM to 0.4 uM) spiked with 100 uM CPI-613, 10-point spread
  drug combination synergy (Chou-Talalay, CalcuSyn): synergy was observed
[2]; all but one APX3330 dosage (6.3 uM), spiked with 75 uM CPI-613, 5-point spread
  drug combination synergy (Chou-Talalay, CalcuSyn): Synergy was observed
CAFs (CAF19 cells); APX3330 alone, co-culture with Pa03C
  area of the CAFs: reduction in the area of the CAFs
CAFs (CAF19 cells); co-culture with Pa03C, D12 curves
  CC50: 57.3 µM
CAFs (CAF19 cells); co-culture with Panc10.05, D12 curves
  CC50: 59.4 µM
Panc10.05
  CC50: 44.5 µM
